Data reported in US12545748B2, “Water-soluble 1,3-diphenylguanidine (DPG)-based supramolecular inclusion complex and preparation method and use thereof” (YANGZHOU UNIVERSITY, priority 2021, dated 2026).
Converted amounts (≈) assume the structure as drawn. Read-outs that look alike come from different tables or passages of the source.

What was measured:
[1] = Thermogravimetric analysis (thermal stability); format: physicochemical
Procedure: Taking Examples 2 and 4 as examples, the thermal stability of DPG raw materials, HP-β-CD, β-CDP and their respective inclusion complexes were analyzed by thermogravimetric analysis, and the results were shown in FIG. 4.

[2] = Solubilization experiment by ultraviolet-visible spectra (244 nm); settings: water, thermodynamic from solid
Description: Taking Examples 2 and 4 as examples, the solubilization effect was verified by comparing and analyzing absorption peaks of ultraviolet-visible spectra of the DPG raw material, the DPG-β-CDP inclusion complex, and the DPG-HP-β-CD inclusion complex. The results were shown in FIG. 5, β-CDP and HP-β-CD had no ultraviolet absorption peaks.

[3] = in water at 25° C.; cited from earlier work
[4] = format: physicochemical
Procedure: 1. Determination of Inclusion Ratio and Inclusion Constant of Inclusion Complex by Ultraviolet-Visible Spectroscopy
According to a Benesi-Hildebrand method (J. Am. Chem. Soc. 1949, 71, 8, 2703-2707), it was obtained that: at 25° C., the complexation stability constants of HP-β-CD and β-CDP with DPG were 26.87 L/mol and 27.88 L/mol, respectively.

complexation stability constant with DPG [4] | Compound | second decomposition (temperature) [1] | began to decompose (temperature) ([1]; first decomposition) | solubility [2] | solubility [3]
 | N=C(Nc1ccccc1)Nc1ccccc1 [DPG, 1,3-diphenylguanidine] | 256 °C | 166 °C | 315 µg/mL (≈ 1490 µM) | about 315 mg/L
26.87 L/mol | hydroxypropyl-ß-cyclodextrin [HP-β-CD] |  |  |  | 
27.88 L/mol | β-cyclodextrin polymer [β-CDP] |  |  |  | 
